Reference: patent US11319299B2, “Substituted carboxamides as inhibitors of WDR5 protein-protein binding” (PROPELLON THERAPEUTICS INC., priority 2016, dated 2022)

Tested on: MV4-11 cells
Assay: Cell proliferation assay (ATPlite)
Type: cell-based
Conditions: Homo sapiens, MV4-11, 120 h; MV-411 cells, five days; read-out: In vitro whole cell potency in MV-411 cells, (IC50)
Description: (iv) Cell Proliferation Assay
MV4-11 cells were seeded into a 96-well plate at 1,000 cells/well in 150 μl medium (Alpha-MEM containing 10% FBS, 100 μg/ml Normocin, and 50 μg/ml Gentamycin, Invitrogen). A HP D300 digital dispenser was used to dose cells with DMSO or test compounds across a 10-point range of concentrations (high dose of 10 μM), and cultures were grown in a humidified 5% CO2 incubator at 37° C. After five days, plates were removed from the incubator and equilibrated to room temperature. An equal volume of ATPlite assay reagent was added to each well, and samples were processed according to manufacturer's instructions (Perkin Elmer). Luminescent signal was measured using an Envision plate reader equipped with a US-Luminescence detector.

Going from `CC1CN(c2cc(F)c(-c3ccc(N4CCOCC4)c(F)c3)cc2NC(=O)c2c[nH]c(=O)cc2C(F)(F)F)CCN1C` (stereo in doubt) [Example 201, N-[4-fluoro-5-(3-fluoro-4-morpholin-4-ylphenyl)-2-[(3R)-3,4-dimethylpiperazin-1-yl]phenyl]-6-oxo-4-(trifluoromethyl)-1H-pyridine-3-carboxamide] to `CN1CCN(c2cc(F)c(-c3ccc(N4CCOCC4)nc3)cc2NC(=O)c2c[nH]c(=O)cc2C(F)(F)F)CC1` [Example 4, N-(4-fluoro-2-(4-methylpiperazin-1-yl)-5-(6-morpholinopyridin-3-yl)phenyl)-6-oxo-4-(trifluoromethyl)-1,6-dihydropyridine-3-carboxamide], the IC50 rises from 113 nM to 574 nM (5.1-fold).

Going from `CC1CN(c2cc(F)c(-c3cnc(N4CCOCC4)nc3)cc2NC(=O)c2cn(C)c(=O)cc2C(F)F)CCN1C` (stereo in doubt) [Example 216, 4-(difluoromethyl)-N-[4-fluoro-5-(2-morpholin-4-ylpyrimidin-5-yl)-2-[(3R)-3,4-dimethylpiperazin-1-yl]phenyl]-1-methyl-6-oxopyridine-3-carboxamide] to `CN1CCN(c2cc(F)c(-c3cnc(N4CCOCC4)nc3)cc2NC(=O)c2c[nH]c(=O)cc2C(F)F)CC1` [Example 20, 4-(difluoromethyl)-N-(4-fluoro-2-(4-methylpiperazin-1-yl)-5-(2-morpholinopyrimidin-5-yl)phenyl)-6-oxo-1,6-dihydropyridine-3-carboxamide], the IC50 rises from 388 nM to 604 nM (1.6-fold).

Going from `CN1CCN(c2cc(F)c(-c3cccc(CN4CCOCC4)c3)cc2NC(=O)c2c[nH]c(=O)cc2C(F)(F)F)CC1` [Example 2, N-[4-fluoro-2-(4-methylpiperazin-1-yl)-5-[3-(morpholin-4-ylmethyl)phenyl]phenyl]-6-oxo-4-(trifluoromethyl)-1H-pyridine-3-carboxamide] to `CN1CCN(c2cc(F)c(-c3ccc4c(c3)OCO4)cc2NC(=O)c2c[nH]c(=O)cc2C(F)(F)F)CC1` [Example 5, N-(5-(benzo[d][1,3]dioxol-5-yl)-4-fluoro-2-(4-methylpiperazin-1-yl)phenyl)-6-oxo-4-(trifluoromethyl)-1,6-dihydropyridine-3-carboxamide], the IC50 falls from 2250 nM to 881 nM (2.6-fold).

Compared with `CN1CCN(c2cc(F)c(-c3cnc(N4CCCC4)nc3)cc2NC(=O)c2c[nH]c(=O)cc2C(F)(F)F)CC1` [Example 9, N-(4-fluoro-2-(4-methylpiperazin-1-yl)-5-(2-(pyrrolidin-1-yl)pyrimidin-5-yl)phenyl)-6-oxo-4-(trifluoromethyl)-1,6-dihydropyridine-3-carboxamide], `Cc1ncc(-c2cc(NC(=O)c3c[nH]c(=O)cc3C(F)(F)F)c(N3CCN(C)CC3)cc2F)cn1` [Example 13, N-(4-fluoro-2-(4-methylpiperazin-1-yl)-5-(2-methylpyrimidin-5-yl)phenyl)-6-oxo-4-(trifluoromethyl)-1,6-dihydropyridine-3-carboxamide] is higher in IC50: 507 nM for the first, over 10000 nM for the second.

First: CN1CCN(c2cc(F)c(-c3cnc(NC4CC4)nc3)cc2NC(=O)c2c[nH]c(=O)cc2C(F)(F)F)CC1 [Example 10, N-(5-(2-(cyclopropylamino)pyrimidin-5-yl)-4-fluoro-2-(4-methylpiperazin-1-yl)phenyl)-6-oxo-4-(trifluoromethyl)-1,6-dihydropyridine-3-carboxamide]
Second: CN1CCN(c2cc(F)c(-c3cnc(NC4CCCCC4)nc3)cc2NC(=O)c2c[nH]c(=O)cc2C(F)(F)F)CC1 [Example 11, N-(5-(2-(cyclohexylamino)pyrimidin-5-yl)-4-fluoro-2-(4-methylpiperazin-1-yl)phenyl)-6-oxo-4-(trifluoromethyl)-1,6-dihydropyridine-3-carboxamide]
The IC50 of the first is higher: over 10000 nM for the first, 1270 nM for the second.

Going from `CCOc1ncc(-c2cc(NC(=O)c3c[nH]c(=O)cc3C(F)(F)F)c(N3CCN(C)CC3)cc2F)cn1` [Example 12, N-(5-(2-ethoxypyrimidin-5-yl)-4-fluoro-2-(4-methylpiperazin-1-yl)phenyl)-6-oxo-4-(trifluoromethyl)-1,6-dihydropyridine-3-carboxamide] to `CN1CCN(c2cc(F)c(-c3cnc(O)nc3)cc2NC(=O)c2c[nH]c(=O)cc2C(F)(F)F)CC1` [Example 15, N-(4-fluoro-5-(2-hydroxypyrimidin-5-yl)-2-(4-methylpiperazin-1-yl)phenyl)-6-oxo-4-(trifluoromethyl)-1,6-dihydropyridine-3-carboxamide], the IC50 rises from 929 nM to over 10000 nM. The first is the more potent here.

Compared with `CN1CCN(c2cc(F)c(-c3ccc(NC4CCCCC4)nc3)cc2NC(=O)c2c[nH]c(=O)cc2C(F)(F)F)CC1` [Example 14, N-(5-(6-(cyclohexylamino)pyridin-3-yl)-4-fluoro-2-(4-methylpiperazin-1-yl)phenyl)-6-oxo-4-(trifluoromethyl)-1,6-dihydropyridine-3-carboxamide], `CN1CCN(c2cc(F)c(-c3cnc(C#N)nc3)cc2NC(=O)c2c[nH]c(=O)cc2C(F)(F)F)CC1` [Example 16, N-(5-(2-cyanopyrimidin-5-yl)-4-fluoro-2-(4-methylpiperazin-1-yl)phenyl)-6-oxo-4-(trifluoromethyl)-1,6-dihydropyridine-3-carboxamide] is 1.8-fold lower in IC50: 1520 nM for the first, 844 nM for the second.

Going from `CN(C)C1CCN(c2cc(F)c(-c3cnc(N4CCOCC4)nc3)cc2NC(=O)c2c[nH]c(=O)cc2C(F)(F)F)C1` (centres unmarked) [Example 21, N-[2-[3-(dimethylamino)pyrrolidin-1-yl]-4-fluoro-5-(2-morpholin-4-ylpyrimidin-5-yl)phenyl]-6-oxo-4-(trifluoromethyl)-1H-pyridine-3-carboxamide] to `CN1CCN(c2cc(F)c(C3=CCOCC3)cc2NC(=O)c2c[nH]c(=O)cc2C(F)(F)F)CC1` [Example 22, N-[5-(3,6-dihydro-2H-pyran-4-yl)-4-fluoro-2-(4-methylpiperazin-1-yl)phenyl]-6-oxo-4-(trifluoromethyl)-1H-pyridine-3-carboxamide], the IC50 rises from 271 nM to 5270 nM (19-fold). The first is the more potent here.

Work on `CN1CCN(c2cc(F)c(C3=CCNCC3)cc2NC(=O)c2c[nH]c(=O)cc2C(F)(F)F)CC1` [Example 23, N-[4-fluoro-2-(4-methylpiperazin-1-yl)-5-(1,2,3,6-tetrahydropyridin-4-yl)phenyl]-6-oxo-4-(trifluoromethyl)-1H-pyridine-3-carboxamide] yielded an IC50 of over 10000 nM.

Biological target: WDR5 (Homo sapiens (Human), UniProt P61964)
Assay: Surface Plasmon Resonance (SPR) assay, KD and residence time
Type: binding
Conditions: surface plasmon resonance (SPR); read-out: WDR5 binding affinity (KD)

`C[C@@H]1CN(c2cc(F)c(-c3cc(F)c(C(=O)N(C)C4CCCCC4)c(F)c3)cc2NC(=O)c2c[nH]c(=O)cc2C(F)(F)F)C[C@H](C)N1C` [Example 760, N-(4′-(cyclohexyl(methyl)carbamoyl)-3′,5′,6-trifluoro-4-((3S,5R)-3,4,5-trimethylpiperazin-1-yl)-[1,1′-biphenyl]-3-yl)-6-oxo-4-(trifluoromethyl)-1,6-dihydropyridine-3-carboxamide] and `C[C@@H]1CN(c2cc(F)c(-c3cc(F)c(C(=O)N(C)C4CCCC4)c(F)c3)cc2NC(=O)c2c[nH]c(=O)cc2C(F)(F)F)C[C@H](C)N1C` [Example 761, N-(4′-(cyclopentyl(methyl)carbamoyl)-3′,5′,6-trifluoro-4-((3S,5R)-3,4,5-trimethylpiperazin-1-yl)-[1,1′-biphenyl]-3-yl)-6-oxo-4-(trifluoromethyl)-1,6-dihydropyridine-3-carboxamide] are the same in Kd: 2 nM for the first, 2 nM for the second.

`C[C@@H]1CN(c2cc(F)c(-c3cc(F)c(C(=O)N[C@@H]4CCOC4)c(F)c3)cc2NC(=O)c2c[nH]c(=O)cc2C(F)(F)F)C[C@H](C)N1C` [Example 762, 6-oxo-N-(3′,5′,6-trifluoro-4′-(((R)-tetrahydrofuran-3-yl)carbamoyl)-4-((3S,5R)-3,4,5-trimethylpiperazin-1-yl)-[1,1′-biphenyl]-3-yl)-4-(trifluoromethyl)-1,6-dihydropyridine-3-carboxamide] and `C[C@@H]1CN(c2cc(F)c(-c3cc(F)c(C(=O)N(C)C4COC4)c(F)c3)cc2NC(=O)c2c[nH]c(=O)cc2C(F)(F)F)C[C@H](C)N1C` [Example 763, 6-oxo-N-(3′,5′,6-trifluoro-4′-(methyl(oxetan-3-yl)carbamoyl)-4-((3S,5R)-3,4,5-trimethylpiperazin-1-yl)-[1,1′-biphenyl]-3-yl)-4-(trifluoromethyl)-1,6-dihydropyridine-3-carboxamide] are within 1.5-fold of each other in Kd: 0.9 nM for the first, 0.7 nM for the second.

Compared with “N-[4-fluoro-5-[2-[(2R)-2-propan-2-ylmorpholin-4-yl]pyrimidin-5-yl]-2-[(3S,5R)-3,4,5-trimethylpiperazin-1-yl]phenyl]-6-oxo-4-(trifluoromethyl)-1H-pyridine-3-carboxamide [Example 548]”, “N-[4-fluoro-5-[2-[(2R,6S)-2,6-dimethylmorpholin-4-yl]pyrimidin-4-yl]-2-[(3R)-3,4-dimethylpiperazin-1-yl]phenyl]-6-oxo-4-(trifluoromethyl)-1H-pyridine-3-carboxamide [Example 698]” is 3.2-fold higher in Kd: 0.5 nM for the first, 1.59 nM for the second.

“N-[5-[1-(2-cyanopyrimidin-4-yl)-3,6-dihydro-2H-pyridin-5-yl]-4-fluoro-2-[(3R)-3,4-dimethylpiperazin-1-yl]phenyl]-4-(difluoromethyl)-6-oxo-1H-pyridine-3-carboxamide [Example 740]” and “N-[5-[1-(5-cyano-1,3-thiazol-2-yl)-3,6-dihydro-2H-pyridin-4-yl]-4-fluoro-2-[(3R)-3,4-dimethylpiperazin-1-yl]phenyl]-4-fluoro-2-(trifluoromethyl)benzamide [Example 690]” are within 1.5-fold of each other in Kd: 4.47 nM for the first, 4.17 nM for the second.

“N-[5-[2-[4-(cyclopropylmethyl)piperazin-1-yl]pyrimidin-5-yl]-4-fluoro-2-[(3R)-3,4-dimethylpiperazin-1-yl]phenyl]-4-fluoro-2-(trifluoromethyl)benzamide [Example 560]” gave a Kd of 1.12 nM.
